The values below come from article PMC7356228, “Alvaxanthone, a Thymidylate Synthase Inhibitor with Nematocidal and Tumoricidal Activities” (Molecules, 2020).

For one assay, the target named is T1, hTS (Homo sapiens, UniProt P04818).
T1 construct: made in house
Nature of the assay: Inhibition of TS-catalyzed reaction (tritium release from [5-3H]dUMP). The assay is classed as biochemical. The text has this: (§1) The recombinant human, rat, mouse, T. spiralis and C. elegans TS proteins were produced, purified and separated into phosphorylated and non-phosphorylated fraction, as previously described. TS activity was monitored, following tritium release from [5-^3H]dUMP, and its inhibition studied as earlier reported.

Another assay has as its target T2, mTS (Mus musculus, UniProt P07607).
T2 construct: made in house
The assay is described as above. Format: biochemical. To be noted: 20 µM dUMP, 250 µM meTHF.
Description: as §1

Assay [1] relates to thymidylate synthase (TS). The assay is described as follows: Time dependence of TS inhibition (initial results). The assay is classed as biochemical. To be noted: suggesting slow-binding character.
Description: as §1

For assay [2], the system named is SCC-15 cells. Nature of the assay: Tetrazolium salts reduction (XTT) assay. The assay is classed as cell-based, human. As for the experimental part:
(§2) Biological effect of alvaxanthone and rheediaxanthone B on normal (BJ) and cancer cells (U-118 MG and SCC-15) was estimated using two viability assays, the neutral red uptake (NR) and tetrazolium salts reduction (XTT) assays.
(§3) Thus, alvaxanthone may be damaging mitochondria and impairing their metabolism exerting one of possible mechanisms active in destroying cancer cells. Changes of cell morphology in dependence on increasing alvaxanthone and rheediaxanthone B concentration were also recorded. While the glioma and squamous carcinoma cells formed clusters, lost their adhesion, shrank, and accumulated less NR dye, normal fibroblasts preserved rather normal shapes but the amount of the neutral red dye and confluence of cells decreased. In addition, a lower number of BJ cells was detected (Figure 1B).
(§4) Influence of selected compounds on cells was tested by performing the cytotoxicity (NR and XTT) assays, proliferation assay, cell adhesion assay, cell migration assay, determination of intracellular ATP level, and apoptosis assay as previously reported.
In general terms: Tetrazolium dyes change colour on reduction, which living cells bring about.

The test system of assay [3] is U-118 MG cells. Nature of the assay: Tetrazolium salts reduction (XTT) assay. The settings on record: U-118 MG vs BJ, 48 h. Format: cell-based, human. As for the experimental part:
as §2, §3, §4

The test system of assay [4] is SCC-15 cells. The assay is described as follows: Proliferation (CyQUANT GR, total cellular DNA content). To be noted: 40 μM, 72 h, BJ vs SCC-15. The assay is classed as cell-based, human. As for the experimental part:
(§5) The influence of alvaxanthone and rheediaxanthone B on cell proliferation (Figure 2) was assessed by quantitative measurement of the total cellular DNA content, proportional to the cell number.
(§6) Figure 2 Proliferation of cancer (U-118 MG and SCC-15) and normal (BJ) cells after 72 h incubation with 5–40 μM alvaxanthone or 1.25–40 μM rheediaxanthone B, determined with the CyQUANT GR Cell Proliferation Assay Kit. Median results are presented of three independent experiments, each performed in triplicate. The whiskers are lower (25%) and upper (75%) quartile ranges. […] Images collected with Olympus IX-83 microscope with contrast phase (scale bar = 100 µm).
as §4

For assay [5], the system named is U-118 MG cells. The assay is described as above. Format: cell-based, human. The settings on record: 40 μM, 72 h, BJ vs U-118 MG. As for the experimental part: as §5, §6, §4
Assay [6] has as its system caspases 3/7 in BJ, U-118 MG, and SCC-15 cells. Nature of the assay: Apo-ONE Homogenous Caspase-3/7 Assay. The settings on record: 48 h, 5–40 µM, span over the three cell lines. The assay is classed as cell-based, human. The protocol:
Figure 4 Changes of caspase-3/7 activities and intracellular ATP level in BJ, U-118 MG, and SCC-15 cells after 48-h incubation with 5–40 µM alvaxanthone or rheediaxanthone B. Median results are presented of three independent experiments, each performed in triplicate. The whiskers are lower (25%) and upper (75%) quartile ranges.
The Apo-ONE® Homogenous Caspase-3/7 Assay provides a measurement of the executioner caspases 3/7 activation, characteristic for apoptosis induced via both the intrinsic and extrinsic pathway. It was used to determine apoptosis induction in cells by alvaxanthone and rheediaxanthone B. In each of the three cell lines, compared to the respective non-treated control, treatment with each of the two compounds for 48 h led to a significant activation of the caspases 3/7 (by 2- to 10-fold for alvaxanthone and 8- to 18-fold for rheediaxanthone B), the effect being stronger in cancer than normal cells (Figure 4).
as §4

Read-outs that look alike come from different tables or passages of the source.

T1 sequence (P04818 whole entry): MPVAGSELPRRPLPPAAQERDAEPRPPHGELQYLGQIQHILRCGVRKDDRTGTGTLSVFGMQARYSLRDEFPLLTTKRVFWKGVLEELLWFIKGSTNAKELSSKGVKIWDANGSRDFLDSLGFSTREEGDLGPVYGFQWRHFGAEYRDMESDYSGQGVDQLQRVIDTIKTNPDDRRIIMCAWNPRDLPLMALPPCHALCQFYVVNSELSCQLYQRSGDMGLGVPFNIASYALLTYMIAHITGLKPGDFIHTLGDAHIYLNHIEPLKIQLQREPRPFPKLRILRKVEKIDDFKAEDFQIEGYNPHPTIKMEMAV
T2 sequence (P07607 whole entry): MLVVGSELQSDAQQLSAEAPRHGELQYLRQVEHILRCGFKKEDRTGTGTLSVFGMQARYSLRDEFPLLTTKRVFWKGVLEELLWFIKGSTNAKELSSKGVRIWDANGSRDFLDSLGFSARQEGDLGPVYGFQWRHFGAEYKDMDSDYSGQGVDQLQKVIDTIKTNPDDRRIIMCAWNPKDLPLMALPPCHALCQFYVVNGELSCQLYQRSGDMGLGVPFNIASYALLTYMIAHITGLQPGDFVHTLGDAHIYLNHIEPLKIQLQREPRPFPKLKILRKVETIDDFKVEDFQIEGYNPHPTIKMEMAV

The IC50 is the concentration needed to halve the response being measured. Broadly, the remaining activity is the activity still measured, relative to the control. For the compound `C=CC(C)(C)c1c(O)cc2oc3c(O)c(O)cc(CC=C(C)C)c3c(=O)c2c1O` [Alvaxanthone (15), Alvaxanthone], the IC50 on hTS (20 µM dUMP and 50 µM meTHF, mean ± S.E.M. (N=3) for alvaxanthone, rheediaxanthone B not repeated, read-out: IC50) was 6.3 ± 1.6 µM; on hTS (20 µM dUMP, 250 µM meTHF, read-out: IC50 Assessment), under 10 µM; in the assay with SCC-15 cells [2] (Homo sapiens, SCC-15), 17 µM. Moreover, the remaining activity at 10 µM stood at 39% on hTS (compound 10 µM, 20 µM dUMP, 250 µM meTHF) and 79% at mTS (compound 10 µM). At mTS (compound 100 µM, read-out: % Remaining Activity), the remaining activity at 100 µM was 40%. In addition, the character of inhibition entry in assay [1] is “time-dependent inhibition”. Further, the “selectivity: more sensitive compared to BJ fibroblasts” value in the assay with SCC-15 cells [2] (SCC-15 vs BJ, 48 h) came out at 5.3 fold; with U-118 MG cells [3], 2.7 fold. For the same compound, the “proliferation inhibition weaker with normal (BJ) than cancer cells” value with SCC-15 cells [4] is given as 5.8 fold; in the assay with U-118 MG cells [5], 2.3 fold. Besides, the “activation of the caspases 3/7 compared to non-treated control” value in assay [6] was 2- to 10 fold.
